Results as given in patent US20260070945A1, “MACROCYCLIC IMMUNOMODULATORS” (Bristol-Myers Squibb Company, priority 2022, published 2026).
pIC50: −log10 of the molar value. *1 amine or outer side, *2 acyl side, *3 side chain or, on linkers, in order; H or OH if unused. Where a SMILES comes first, the peptide text is derived from it. Bridges are numbered along the chain shown (N, C = ends). [ ]: non-standard residue; d: D form. The star is where a group is joined. ξ: configuration not given here. Phe(3-CF3) = N[C@@H](Cc1cccc(C(F)(F)F)c1)C(=O)O; Phe(4-COOH) = N[C@@H](Cc1ccc(C(=O)O)cc1)C(=O)O; Bip = N[C@@H](Cc1ccc(-c2ccccc2)cc1)C(=O)O; Phe(3-CN) = N#Cc1cccc(C[C@H](N)C(=O)O)c1; NH(CH2)14COOH = O=C(O)CCCCCCCCCCCCCCN*; Phe(3-Me) = Cc1cccc(C[C@H](N)C(=O)O)c1; βAsp = O=C(O)[C@H](CC(=O)[*:2])N[*:1]; Val(3-OH) = CC(C)(O)[C@H](N)C(=O)O; Pip(4-aza) = O=C(O)[C@@H]1CNCCN1; hArg = N=C(N)NCCCC[C@H](N)C(=O)O; 4Pal = N[C@@H](Cc1ccncc1)C(=O)O; Cha = N[C@@H](CC1CCCCC1)C(=O)O; Cit = NC(=O)NCCC[C@H](N)C(=O)O; Thr(3ξ) = CC(O)[C@H](N)C(=O)O; Phg = N[C@H](C(=O)O)c1ccccc1; 12Ado = NCCCCCCCCCCCC(=O)O; hSer = N[C@@H](CCO)C(=O)O; Carboxymethyl = O=C(O)C*; NMeA = CN[C@@H](C)C(=O)O; Orn = NCCC[C@H](N)C(=O)O; Aun = NCCCCCCCCCCC(=O)O; Dab = NCC[C@H](N)C(=O)O; AEEA = NCCOCCOCC(=O)O

Target: T1, PD-1/PD-L1 interaction (PE-labeled human PD-L1-Ig binding to Jurkat cell line over-expressing human PD-1) (Homo sapiens, UniProt Q15116)
T1 construct: expressed in transfected cells; host or cells: Jurkat
T1 sequence (Q15116 25-288): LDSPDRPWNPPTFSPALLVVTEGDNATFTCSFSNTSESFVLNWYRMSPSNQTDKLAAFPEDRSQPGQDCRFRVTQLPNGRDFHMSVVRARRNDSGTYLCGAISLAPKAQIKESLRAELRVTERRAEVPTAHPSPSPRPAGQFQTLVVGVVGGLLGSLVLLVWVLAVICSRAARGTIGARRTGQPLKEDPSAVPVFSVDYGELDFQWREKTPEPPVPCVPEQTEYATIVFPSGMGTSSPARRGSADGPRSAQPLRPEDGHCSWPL
Assay: Jurkat-PD-1 Cell Binding High-Content Screening Assay (CBA)
Conditions: Jurkat-hPD-1 cells, PE-labeled PD-L1-Ig 20 nM final; read-out: Jurkat HPD1 PDL1 IC50
Outline: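 In this imaging assay, cells in 10% FCS medium see compound for 2 h at 37 °C and then labeled ligand at 20 nM final for 1 h. Paraformaldehyde fixation, Hoechst 33342 staining and dPBS washes precede image capture.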

Going from `Cc1cccc(C[C@@H]2NC(=O)[C@H](CC(=O)O)NC(=O)[C@H](Cc3ccc(C(=O)O)cc3)NC(=O)[C@H](Cc3ccc(OCC(=O)O)cc3)NC(=O)CSC[C@@H](C(=O)NCCOCCOCC(=O)NCCCCCCCCCCC(=O)O)NC(=O)[C@H](CCO)NC(=O)[C@H](C(C)C)NC(=O)[C@H](CC3CCCCC3)NC(=O)[C@H](CCN)NC(=O)[C@@H](CC(C)C)NC(=O)[C@H](C)N(C)C(=O)[C@H](CCCNC(N)=O)NC(=O)[C@H](Cc3ccc(-c4ccccc4)cc3)NC(=O)[C@H](C(C)C)NC2=O)c1` [Example 2317] ({CH2CO}-Y(Carboxymethyl)[Phe(4-COOH)]D[Phe(3-Me)]V[Bip][Cit][NMeA][dL][Dab][Cha]V[hSer]C[AEEA][Aun]-OH; thioether N-14) to `Cc1cccc(C[C@@H]2NC(=O)[C@H](CC(=O)O)NC(=O)[C@H](Cc3ccc(C(=O)O)cc3)NC(=O)[C@H](Cc3ccc(OCC(=O)O)cc3)NC(=O)CSC[C@@H](C(=O)NCCCCCCCCCCC(=O)O)NC(=O)[C@H](C(C)O)NC(=O)[C@H](C(C)C)NC(=O)[C@H](CC3CCCCC3)NC(=O)[C@H](CCN)NC(=O)[C@@H](CC(C)C)NC(=O)[C@H](C)N(C)C(=O)[C@H](CCCNC(N)=O)NC(=O)[C@H](Cc3ccc(-c4ccccc4)cc3)NC(=O)[C@H](CC(C)C)NC2=O)c1` (stereo partly drawn) [Example 2330] ({CH2CO}-Y(Carboxymethyl)[Phe(4-COOH)]D[Phe(3-Me)]L[Bip][Cit][NMeA][dL][Dab][Cha]V[Thr(3ξ)]C[Aun]-OH; thioether N-14), the pIC50 falls from 8.05 to 7.42 (0.63 log units). The first is the more potent here.

Compared with `CC(C)C[C@@H]1NC(=O)[C@H](Cc2c[nH]c3ccccc23)NC(=O)[C@H](CC(=O)O)NC(=O)[C@H](Cc2ccncc2)NC(=O)[C@H](Cc2ccc(OCC(=O)O)cc2)NC(=O)CSC[C@@H](C(=O)N2CCNC[C@H]2C(=O)NCCCCCCCCCCC(=O)O)NC(=O)[C@H](C(C)O)NC(=O)[C@H](C(C)C)NC(=O)[C@H](CC2CCCCC2)NC(=O)[C@H](CCN)NC(=O)[C@@H](CC(C)C)NC(=O)[C@H](C)N(C)C(=O)[C@H](C(C)C)NC(=O)[C@H](Cc2ccc(-c3ccccc3)cc2)NC1=O` (stereo partly drawn) [Example 1221] ({CH2CO}-Y(Carboxymethyl)[4Pal]DWL[Bip]V[NMeA][dL][Dab][Cha]V[Thr(3ξ)]C[Pip(4-aza)][Aun]-OH; thioether N-14), `CC(C)C[C@H]1NC(=O)[C@H](C)N(C)C(=O)[C@H](C(C)C)NC(=O)[C@H](Cc2ccc(-c3ccccc3)cc2)NC(=O)[C@H](C(C)C)NC(=O)[C@H](Cc2c[nH]c3ccccc23)NC(=O)[C@H](CC(=O)O)NC(=O)[C@H](Cc2ccc(C(=O)O)cc2)NC(=O)[C@H](Cc2ccc(OCC(=O)O)cc2)NC(=O)CSC[C@@H](C(=O)N[C@@H](CCCCN)C(=O)NCCOCCOCC(=O)NCCCCCCCCCCC(=O)O)NC(=O)[C@H](CO)NC(=O)[C@H](C(C)C)NC(=O)[C@H](CC2CCCCC2)NC(=O)[C@H](CCN)NC1=O` [Example 2101] ({CH2CO}-Y(Carboxymethyl)[Phe(4-COOH)]DWV[Bip]V[NMeA][dL][Dab][Cha]VSCK[AEEA][Aun]-OH; thioether N-14) is 0.92 log units higher in pIC50: 6.92 for the first, 7.84 for the second. The second is the more potent here.

First: CC(C)C[C@H]1NC(=O)[C@H](C)N(C)C(=O)[C@H](Cc2ccc(OCC(=O)O)cc2)NC(=O)[C@H](Cc2ccc(-c3ccccc3)cc2)NC(=O)[C@H](Cc2ccc(OCC(=O)O)cc2)NC(=O)[C@H](Cc2cccc(C#N)c2)NC(=O)[C@H](CC(=O)O)NC(=O)[C@H](Cc2ccc(OCC(=O)O)cc2)NC(=O)[C@H]([C@@H](C)O)NC(=O)CSC[C@@H](C(=O)N[C@@H](CCN)C(=O)NCCOCCOCC(=O)NCCCCCCCCCCC(=O)O)NC(=O)[C@H](CCC(=O)O)NC(=O)[C@H](C(C)C)NC(=O)[C@H](CC2CCCCC2)NC(=O)[C@H](CCN)NC1=O [Example 1230] ({CH2CO}-TY(Carboxymethyl)D[Phe(3-CN)]Y(Carboxymethyl)[Bip]Y(Carboxymethyl)[NMeA][dL][Dab][Cha]VEC[Dab][AEEA][Aun]-OH; thioether N-14)
Second: CC(C)C[C@H]1NC(=O)[C@H](C)N(C)C(=O)[C@H](Cc2ccc(OCC(=O)O)cc2)NC(=O)[C@H](Cc2ccc(-c3ccccc3)cc2)NC(=O)[C@H](Cc2ccc(OCC(=O)O)cc2)NC(=O)[C@H](Cc2c[nH]c3ccccc23)NC(=O)[C@H](CC(=O)O)NC(=O)[C@H](Cc2ccncc2)NC(=O)[C@H](Cc2ccc(OCC(=O)O)cc2)NC(=O)CSC[C@@H](C(=O)N[C@@H](CCN)C(=O)NCCCCCCCCCCC(=O)O)NC(=O)[C@H](CCCn2cc(CN(C)C(=O)c3ccc(F)cc3)nn2)NC(=O)[C@H](C(C)C)NC(=O)[C@H](CC2CCCCC2)NC(=O)[C@H](CCN)NC1=O [Example 1110]
The pIC50 of the first is 0.75 log units lower: 6.89 for the first, 7.64 for the second.

Compared with `Cc1cccc(C[C@@H]2NC(=O)[C@H](CC(=O)O)NC(=O)[C@H](Cc3ccc(C(=O)O)cc3)NC(=O)[C@H](Cc3ccc(OCC(=O)O)cc3)NC(=O)CSC[C@@H](C(=O)NCC(=O)N[C@@H](CC(=O)NCCOCCOCC(=O)N[C@@H](CCC(=O)O)C(=O)NCCOCCOCC(=O)NCCCCCCCCCCC(=O)O)C(=O)O)NC(=O)[C@H](CO)NC(=O)[C@H](C(C)C)NC(=O)[C@H](CC(C)C)NC(=O)[C@H](CC(N)=O)NC(=O)[C@@H](CC(C)C)NC(=O)[C@H](C)N(C)C(=O)[C@H](C(C)C)NC(=O)[C@H](Cc3ccc(-c4ccccc4)cc3)NC(=O)[C@H](CC(C)C)NC2=O)c1` [Example 1023] ({CH2CO}-Y(Carboxymethyl)[Phe(4-COOH)]D[Phe(3-Me)]L[Bip]V[NMeA][dL]NLVSCG[βAsp][AEEA]E[AEEA][Aun]-OH; thioether N-14), `CC(C)C[C@@H]1NC(=O)[C@H](Cc2c[nH]c3ccccc23)NC(=O)[C@H](CC(=O)O)NC(=O)[C@H](Cc2ccc(OCC(=O)O)cc2)NC(=O)[C@H](CCCCNC(=N)N)NC(=O)CSC[C@@H](C(=O)NCC(=O)NCCOCCOCC(=O)N[C@@H](CCCN)C(=O)NCCCCCCCCCCCC(=O)O)NC(=O)[C@H](CO)NC(=O)[C@H](C(C)C)NC(=O)[C@H](CC2CCCCC2)NC(=O)[C@H](CCN)NC(=O)[C@@H](CC(C)C)NC(=O)[C@H](C)N(C)C(=O)[C@H](C(C)C)NC(=O)[C@H](Cc2ccc(-c3ccccc3)cc2)NC1=O` [Example 2123] ({CH2CO}-[hArg]Y(Carboxymethyl)DWL[Bip]V[NMeA][dL][Dab][Cha]VSCG[AEEA][Orn][12Ado]-OH; thioether N-14) is 1.02 log units higher in pIC50: 6.92 for the first, 7.94 for the second. The second is the more potent here.

First: CC(C)C[C@@H]1NC(=O)[C@H](Cc2c[nH]c3ccccc23)NC(=O)[C@H](CC(=O)O)NC(=O)[C@H](Cc2ccc(OCC(=O)O)cc2)NC(=O)[C@H](CCCCNC(=N)N)NC(=O)CSC[C@@H](C(=O)NCC(=O)NCCOCCOCC(=O)N[C@@H](CCCCN)C(=O)NCCCCCCCCCCC(=O)O)NC(=O)[C@H](CCCNC(N)=O)NC(=O)[C@H](C(C)C)NC(=O)[C@H](CC2CCCCC2)NC(=O)[C@H](CCN)NC(=O)[C@@H](CC(C)C)NC(=O)[C@H](C)N(C)C(=O)[C@H](C(C)C)NC(=O)[C@H](Cc2ccc(-c3ccccc3)cc2)NC1=O [Example 2181] ({CH2CO}-[hArg]Y(Carboxymethyl)DWL[Bip]V[NMeA][dL][Dab][Cha]V[Cit]CG[AEEA]K[Aun]-OH; thioether N-14)
Second: Cc1cccc(C[C@@H]2NC(=O)[C@H](CC(=O)O)NC(=O)[C@H](Cc3ccc(C(=O)O)cc3)NC(=O)[C@H](CCN)NC(=O)CSC[C@@H](C(=O)N[C@@H](CCN)C(=O)NCCCCCCCCCCC(=O)O)NC(=O)[C@H](CO)NC(=O)[C@H](C(C)(C)O)NC(=O)[C@H](CC3CCCCC3)NC(=O)[C@H](CCN)NC(=O)[C@@H](CC(C)C)NC(=O)[C@H](C)N(C)C(=O)[C@H](Cc3ccc(OCC(=O)O)cc3)NC(=O)[C@H](Cc3ccc(-c4ccccc4)cc3)NC(=O)[C@H](c3ccccc3)NC2=O)c1 [Example 1292] ({CH2CO}-[Dab][Phe(4-COOH)]D[Phe(3-Me)][Phg][Bip]Y(Carboxymethyl)[NMeA][dL][Dab][Cha][Val(3-OH)]SC[Dab][Aun]-OH; thioether N-14)
The pIC50 of the first is 0.67 log units higher: 7.68 for the first, 7.01 for the second.

Same assay, conditions: PE-labeled PD-L1-Ig 20 nM final, Jurkat-hPD-1 cells; read-out: Jurkat HPD1 PDL1 IC50

Compared with `CC(C)C[C@H]1NC(=O)[C@H](C)N(C)C(=O)[C@H](Cc2ccc(C(=O)O)cc2)NC(=O)[C@H](Cc2ccc(-c3ccccc3)cc2)NC(=O)[C@H](Cc2ccc(C(=O)O)cc2)NC(=O)[C@H](Cc2cccc(C(F)(F)F)c2)NC(=O)[C@H](CC(=O)O)NC(=O)[C@H](Cc2ccc(C(=O)O)cc2)NC(=O)[C@H](C(C)O)NC(=O)CSC[C@@H](C(=O)N[C@@H](CCN)C(=O)NCCOCCOCC(=O)NCCCCCCCCCCCCCCC(=O)O)NC(=O)[C@H](CC(=O)O)NC(=O)[C@H](C(C)C)NC(=O)[C@H](CC2CCCCC2)NC(=O)[C@H](CCN)NC1=O` (stereo partly drawn) [Example 2605] ({CH2CO}-[Thr(3ξ)][Phe(4-COOH)]D[Phe(3-CF3)][Phe(4-COOH)][Bip][Phe(4-COOH)][NMeA][dL][Dab][Cha]VDC[Dab][AEEA]-{NH(CH2)14COOH}; thioether N-14), `Cc1cccc(C[C@@H]2NC(=O)[C@H](CC(=O)O)NC(=O)[C@H](Cc3ccc(OCC(=O)O)cc3)NC(=O)[C@H](C(C)O)NC(=O)CSC[C@@H](C(=O)N[C@@H](CO)C(=O)NCCOCCOCC(=O)NCCCCCCCCCCC(=O)O)NC(=O)[C@H](CCC(=O)O)NC(=O)[C@H](C(C)(C)O)NC(=O)[C@H](CC3CCCCC3)NC(=O)[C@H](CCN)NC(=O)[C@@H](CC(C)C)NC(=O)[C@H](C)N(C)C(=O)[C@H](Cc3ccc(OCC(=O)O)cc3)NC(=O)[C@H](Cc3ccc(-c4ccccc4)cc3)NC(=O)[C@H](Cc3ccc(OCC(=O)O)cc3)NC2=O)c1` (stereo partly drawn) [Example 2507] ({CH2CO}-[Thr(3ξ)]Y(Carboxymethyl)D[Phe(3-Me)]Y(Carboxymethyl)[Bip]Y(Carboxymethyl)[NMeA][dL][Dab][Cha][Val(3-OH)]ECS[AEEA][Aun]-OH; thioether N-14) is 0.20 log units higher in pIC50: 6.21 for the first, 6.41 for the second. The second is the more potent here.
